How the values were obtained:
[1] = tested on: EBOV-GP-pseudotyped virus (pEBOV); experiment: microbe, parasite or virus in culture; details: for inhibition at 10 µM: Zaire ebolavirus, Vero C1008, read-out: %inh@10 μM (pEBOV); for EC50: Vesicular stomatitis virus, Vero C1008, 24 h, read-out: EC50 (pEBOV)
[2] = tested on: VSV-G-pseudotype virus (pVSV-G); experiment: microbe, parasite or virus in culture; format: cell-based; details: Vesicular stomatitis virus, read-out: %inh@10µM (pVSV-G)
[3] = in vitro
[4] = tested on: wild-type Zaire EBOV Mayinga 1976 strain (EBOV May); experiment: microbe, parasite or virus in culture; details: Zaire ebolavirus, Vero C1008, 72 h, read-out: EC50 (EBOV May)
[5] = tested on: EBOV-GP-pseudotyped virus (pEBOV)
[6] = tested on: wild-type Zaire EBOV Mayinga 1976 strain (EBOV May)

O=C(Nc1ccccc1)c1cnc(-c2ccc(OC3CCNCC3)cc2)s1 [compound 78, N-Phenyl-2-(4-(piperidin-4-yloxy)phenyl)thiazole-5-carboxamide]
inhibition at 10 µM [1]: -96%
inhibition at 10 µM [2]: -32%
CC50 at 24 h ([3]; chlorocebus sabaeus): 50 µM

O=C(NCCc1ccccc1)c1ccc(-c2ccc(O)cc2)s1 [compound 30]
inhibition at 10 µM [1]: -63%
CC50 ([3]; chlorocebus sabaeus): > 200 µM

O=C(Nc1ccc(Cl)cc1)c1ccc(-c2ccc(OC3CCNCC3)cc2)s1 [compound 58, N-(4-Chlorophenyl)-5-(4-(piperidin-4-yloxy)phenyl)thiophene-2-carboxamide]
EC50 [4]: 2.42 µM
SI (CC50/EC50) [5]: 1.39
SI (CC50/EC50) [6]: 4.13
EC50 [1]: 7.18 µM
inhibition at 10 µM [2]: -12%
CC50 at 24 h ([3]; chlorocebus sabaeus): 10 µM

O=C(c1ccc(-c2ccccc2OC2CCNCC2)s1)N1CCCC1 [compound 52, (5-(2-(Piperidin-4-yloxy)phenyl)thiophen-2-yl)(pyrrolidin-1-yl)methanone]
antiviral activity against pEBOV (in words) [5]: completely inactive
inhibition at 10 µM [1]: -116%
inhibition at 10 µM [2]: -108%
CC50 ([3]; chlorocebus sabaeus): > 100 µM

O=C(NCCc1ccccc1)c1ccc(-c2cccc(O)c2)s1 [compound 26]
inhibition at 10 µM [1]: 10%
CC50 ([3]; chlorocebus sabaeus): > 200 µM

O=C(NCCc1ccccc1)c1ccc(-c2cccc(OC3CCNCC3)c2)s1 [compound 56, N-Phenethyl-5-(3-(piperidin-4-yloxy)phenyl)thiophene-2-carboxamide]
EC50 [4]: 4.93 µM
SI (CC50/EC50) [5]: 1.98
SI (CC50/EC50) [6]: 2.0
EC50 [1]: 5.03 µM
inhibition at 10 µM [2]: -182%
CC50 at 24 h ([3]; chlorocebus sabaeus): 10 µM

O=C(Nc1ccc(Cl)cc1)c1ccc(-c2ccc(O)cc2)s1 [compound 28]
inhibition at 10 µM [1]: 46%
CC50 ([3]; chlorocebus sabaeus): > 200 µM

O=C(Nc1ccc(Cl)cc1)c1ccc(-c2ccccc2O)s1 [compound 17]
inhibition at 10 µM [1]: -19%
CC50 ([3]; chlorocebus sabaeus): > 100 µM

O=C(NCCC1CCN(Cc2ccccc2)CC1)c1ccc(-c2ccccc2O)s1 [compound 21]
inhibition at 10 µM [1]: -22%
CC50 at 24 h ([3]; chlorocebus sabaeus): 70 µM

O=C(c1ccc(-c2ccccc2)s1)N1CCCC1 [compound 8]
inhibition at 10 µM [1]: < 75%
CC50 ([3]; chlorocebus sabaeus): > 100 µM

O=C(NCCC1CCN(Cc2ccccc2)CC1)c1ccc(-c2ccc(OC3CCNCC3)cc2)s1 [compound 63, N-(2-(1-Benzylpiperidin-4-yl)ethyl)-5-(4-(piperidin-4-yloxy)phenyl)thiophene-2-carboxamide]
antiviral activity against pEBOV (in words) [5]: completely inactive
inhibition at 10 µM [1]: 58%
inhibition at 10 µM [2]: 12%
CC50 ([3]; chlorocebus sabaeus): > 100 µM

O=C(NCCC1CCN(Cc2ccccc2)CC1)c1ccc(-c2ccccc2)s1 [compound 7]
inhibition at 10 µM [1]: < 75%
CC50 ([3]; chlorocebus sabaeus): > 100 µM

O=C(Nc1ccccc1)c1ccc(-c2cccc(OC3CCNCC3)c2)o1 [compound 103, N-Phenyl-5-(3-(piperidin-4-yloxy)phenyl)furan-2-carboxamide]
EC50 [4]: 9.26 µM
SI (CC50/EC50) [5]: 1.7
SI (CC50/EC50) [6]: 1.5
EC50 [1]: 8.27 µM
inhibition at 10 µM [2]: -18%
CC50 at 24 h ([3]; chlorocebus sabaeus): 14.1 µM

O=C(Nc1cccc(Cl)c1)c1ccc(-c2ccccc2O)s1 [compound 18]
inhibition at 10 µM [1]: -35%
CC50 ([3]; chlorocebus sabaeus): > 100 µM

CC(C)(C)OC(=O)N1CCC(Oc2ccccc2-c2ccc(C(=O)Nc3cccc(Cl)c3)s2)CC1 [compound 34, tert-butyl 4-(2-(5-((3-chlorophenyl)carbamoyl)thiophen-2-yl)phenoxy)piperidine-1-carboxylate]
antiviral activity against pEBOV (in words) [5]: complete loss of activity
inhibition at 10 µM [1]: -36%
CC50 ([3]; chlorocebus sabaeus): > 100 µM

O=C(NCCc1ccccc1)c1cnc(-c2ccccc2OC2CCNCC2)s1 [compound 97, N-Phenethyl-2-(2-(piperidin-4-yloxy)phenyl)thiazole-5-carboxamide]
EC50 [4]: 15.7 µM
SI (CC50/EC50) [5]: 14.5
SI (CC50/EC50) [6]: 5.8
EC50 [1]: 6.27 µM
inhibition at 10 µM [2]: 18%
CC50 at 24 h ([3]; chlorocebus sabaeus): 91 µM

O=C(NCCC1CCN(Cc2ccccc2)CC1)c1ccc(-c2ccc(O)cc2)s1 [compound 31]
inhibition at 10 µM [1]: 41%
CC50 ([3]; chlorocebus sabaeus): > 100 µM

O=C(NCCc1ccccc1)c1ccc(-c2ccccc2O)s1 [compound 19]
inhibition at 10 µM [1]: -22%
CC50 ([3]; chlorocebus sabaeus): > 100 µM

O=C(Nc1ccc(Cl)cc1)c1ccc(-c2cccc(O)c2)s1 [compound 24]
inhibition at 10 µM [1]: 16%
CC50 ([3]; chlorocebus sabaeus): > 200 µM

O=C(Nc1cccc(Cl)c1)c1ccc(-c2cccc(OC3CCNCC3)c2)s1 [compound 55, N-(3-Chlorophenyl)-5-(3-(piperidin-4-yloxy)phenyl)thiophene-2-carboxamide]
EC50 [4]: 1.86 µM
SI (CC50/EC50) [6]: 8.0
EC50 [1]: 7.5 µM
inhibition at 10 µM [2]: -4%
CC50 at 24 h ([3]; chlorocebus sabaeus): 15 µM

O=C(Nc1ccccc1)c1ccc(-c2ccccc2O)s1 [compound 16]
inhibition at 10 µM [1]: -36%
CC50 ([3]; chlorocebus sabaeus): > 100 µM

O=C(Nc1cccc(Cl)c1)c1ccc(-c2cccc(O)c2)s1 [compound 25]
inhibition at 10 µM [1]: -20%
CC50 ([3]; chlorocebus sabaeus): > 200 µM

CC(C)(C)OC(=O)N1CCC(Oc2cccc(-c3ccc(C(=O)Nc4ccccc4)s3)c2)CC1 [compound 39, tert-butyl 4-(3-(5-(phenylcarbamoyl)thiophen-2-yl)phenoxy)piperidine-1-carboxylate]
antiviral activity against pEBOV (in words) [5]: complete loss of activity
inhibition at 10 µM [1]: 38%

O=C(NCCc1ccccc1)c1ccc(-c2ccccc2OC2CCNCC2)o1 [compound 102, N-Phenethyl-5-(2-(piperidin-4-yloxy)phenyl)furan-2-carboxamide]
EC50 [4]: 6.19 µM
SI (CC50/EC50) [5]: 12.77
SI (CC50/EC50) [6]: 4.5
EC50 [1]: 2.16 µM
inhibition at 10 µM [2]: -23%
CC50 at 24 h ([3]; chlorocebus sabaeus): 27.6 µM

O=C(Nc1ccc(Cl)cc1)c1ccc(-c2cccc(OC3CCNCC3)c2)s1 [compound 54, N-(4-Chlorophenyl)-5-(3-(piperidin-4-yloxy)phenyl)thiophene-2-carboxamide]
EC50 [4]: 1.12 µM
SI (CC50/EC50) [5]: 2.8
SI (CC50/EC50) [6]: 8.9
EC50 [1]: 3.53 µM
inhibition at 10 µM [2]: 30%
CC50 at 24 h ([3]; chlorocebus sabaeus): 10 µM

O=C(c1ccc(-c2ccccc2O)s1)N1CCCC1 [compound 22]
inhibition at 10 µM [1]: 0%
CC50 ([3]; chlorocebus sabaeus): > 200 µM

O=C(Nc1cccc(Cl)c1)c1ccc(-c2ccc(O)cc2)s1 [compound 29]
inhibition at 10 µM [1]: 27%
CC50 ([3]; chlorocebus sabaeus): > 200 µM

O=C(Nc1ccc(Cl)cc1)c1ccc(-c2ccccc2OC2CCNCC2)s1 [compound 47, N-(4-Chlorophenyl)-5-(2-(piperidin-4-yloxy)phenyl)thiophene-2-carboxamide]
EC50 [4]: 1.55 µM
SI (CC50/EC50) [5]: 3.32
SI (CC50/EC50) [6]: 18
EC50 [1]: 8.4 µM
inhibition at 10 µM [2]: -117%
CC50 at 24 h ([3]; chlorocebus sabaeus): 27.9 µM

O=C(Nc1ccc(N2CCOCC2)cc1)c1ccc(-c2ccccc2O)s1 [compound 20]
inhibition at 10 µM [1]: -23%
CC50 ([3]; chlorocebus sabaeus): > 100 µM

O=C(Nc1ccc(Cl)cc1)c1ccc(-c2ccccc2)s1 [compound 3]
inhibition at 10 µM [1]: < 75%
CC50 ([3]; chlorocebus sabaeus): > 100 µM

O=C(Nc1cccc(Cl)c1)c1ccc(-c2ccccc2)s1 [compound 4]
EC50 [4]: > 100 µM
inhibition at 10 µM [1]: < 75%
CC50 ([3]; chlorocebus sabaeus): > 100 µM

O=C(Nc1ccccc1)c1cnc(-c2cccc(OC3CCNCC3)c2)s1 [compound 98, N-Phenyl-2-(3-(piperidin-4-yloxy)phenyl)thiazole-5-carboxamide]
inhibition at 10 µM [1]: -8%
inhibition at 10 µM [2]: -18%

O=C(Nc1cccc(Cl)c1)c1ccc(-c2ccc(OC3CCNCC3)cc2)s1 [compound 59, N-(3-Chlorophenyl)-5-(4-(piperidin-4-yloxy)phenyl)thiophene-2-carboxamide]
EC50 [4]: 1.19 µM
SI (CC50/EC50) [5]: 3.8
SI (CC50/EC50) [6]: 21.8
EC50 [1]: 7.91 µM
inhibition at 10 µM [2]: 5%
CC50 at 24 h ([3]; chlorocebus sabaeus): 26 µM

O=C(NCCC1CCN(Cc2ccccc2)CC1)c1ccc(-c2ccccc2OC2CCNCC2)o1 [compound 101, N-(2-(1-Benzylpiperidin-4-yl)ethyl)-5-(2-(piperidin-4-yloxy)phenyl)furan-2-carboxamide]
EC50 [4]: 9.5 µM
SI (CC50/EC50) [5]: 18.7
SI (CC50/EC50) [6]: 9.5
EC50 [1]: 4.81 µM
inhibition at 10 µM [2]: 39%
CC50 at 24 h ([3]; chlorocebus sabaeus): 90 µM

O=C(Nc1ccccc1)c1ccc(-c2ccccc2)s1 [compound 2]
inhibition at 10 µM [1]: < 75%
CC50 ([3]; chlorocebus sabaeus): > 100 µM

O=C(NCCc1ccccc1)c1ccc(-c2ccccc2)s1 [compound 5]
EC50 [4]: > 100 µM
inhibition at 10 µM [1]: < 75%
CC50 ([3]; African green monkey): 100 µM
CC50 ([3]; chlorocebus sabaeus): > 100 µM

O=C(NCCc1ccccc1)c1ccc(-c2ccc(OC3CCNCC3)cc2)s1 [compound 60, N-Phenethyl-5-(4-(piperidin-4-yloxy)phenyl)thiophene-2-carboxamide]
antiviral activity against pEBOV (in words) [5]: completely inactive
inhibition at 10 µM [1]: -8%
inhibition at 10 µM [2]: -12%
CC50 at 24 h ([3]; chlorocebus sabaeus): 10 µM

O=C(Nc1ccccc1)c1ccc(-c2ccccc2OC2CCNCC2)o1 [compound 100, N-Phenyl-5-(2-(piperidin-4-yloxy)phenyl)furan-2-carboxamide]
SI (CC50/EC50) [5]: 3.8
EC50 [1]: 20.7 µM
inhibition at 10 µM [2]: 32%
CC50 at 24 h ([3]; chlorocebus sabaeus): 79 µM

O=C(Nc1cccc(Cl)c1)c1ccc(-c2ccccc2OC2CCNCC2)s1 [compound 48, N-(3-Chlorophenyl)-5-(2-(piperidin-4-yloxy)phenyl)thiophene-2-carboxamide]
EC50 [4]: 1.3 µM
SI (CC50/EC50) [5]: 4.8
SI (CC50/EC50) [6]: 17.1
EC50 [1]: 4.65 µM
CC50 at 24 h ([3]; chlorocebus sabaeus): 22.3 µM

O=C(Nc1ccc(N2CCOCC2)cc1)c1ccc(-c2ccccc2)s1 [compound 6]
inhibition at 10 µM [1]: < 75%
CC50 ([3]; chlorocebus sabaeus): > 100 µM

O=C(Nc1ccccc1)c1ccc(-c2ccccc2OC2CCN(Cc3ccccc3)CC2)s1 [compound 64]
antiviral activity against pEBOV (in words) [5]: lacked activity
inhibition at 10 µM [1]: 27%
CC50 ([3]; chlorocebus sabaeus): > 200 µM

Reference: article PMC11440591 (Journal of Medicinal Chemistry, 2024)
